Primed or numbered codes have the meaning given here. No end group written: not given here. *: point of attachment. Dabcyl′ = N-terminal Dabcyl quencher, CN(C)c1ccc(/N=N/c2ccc(C(=O)*)cc2)cc1 Bounds are passed on as bounds.

Consider 14 molecules from patent publication US12366572B2, “Activation of bioluminescence by structural complementation” (Promega Corporation, priority 2013, dated 2025).

Series [1] concerns NLpoly11S. Put plainly: Binding of NLpoly11S to synthetic NLPep78/79 and N- or C-terminal HaloTag fusions (Examples 107, 108). The following applies: E. coli lysates, NanoGlo + 100 uM Fz. On the procedure: Fusions of NLpep78-HaloTag (78-HT) and HaloTag-NLPep78 (HT-78) were quantitated, with a GST-HaloTag® fusion (GST-HT) as a control, by labeling E. coli lysates with the HaloTag-TMR® ligand, separated by SDS-PAGE, and scanned on Typhoon. A standard curve was then created using known concentrations of GST-HT standard, and band intensities of 78-HT and HT-78 were used to determine their concentrations.
E. coli lysates containing NLpoly11S were diluted 1:107 into PBS pH 7+0.1% Prionex. Serial dilutions of 78-HT, HT-78, and synthetic NLpep78 were made in PBS pH 7+0.1% Prionex. 20 uL NLpoly11S and 20 μL of one of the NLPep were mixed and incubated at ambient temperature for 5 minutes. 40 uL NanoGlo® reagent (Promega Corporation)+100 uM Fz were added, and the samples incubates at ambient temperature for 5 min. Luminescence was measured on GlomaxMulti+ using 0.5 s integration. Data was fit to one-site, specific binding using GraphPad Prism to determine Bmax and Kd.
Fusions of NLpep79-HaloTag (79-HT) and HaloTag-NLPep79 (HT-79) were quantitated, with a GST-HaloTag® fusion (GST-HT) as a control, by labeling E. coli lysates with the HaloTag-TMR® ligand, separated by SDS-PAGE, and scanned on Typhoon. A standard curve was then created using known concentrations of GST-HT standard, and band intensities of 79-HT and HT-79 were used to determine their concentrations.
E. coli lysates containing NLpoly11S were diluted 1:107 into PBS pH 7+0.1% Prionex. Serial dilutions of 79-HT, HT-79, and synthetic NLpep79 were made in PBS pH 7+0.1% Prionex. 20 uL NLpoly11S and 20 μL of one of the NLPep were mixed and incubated at ambient temperature for 5 minutes. 40 uL NanoGlo® reagent (Promega Corporation)+100 uM Fz were added, and the samples incubates at ambient temperature for 5 min. Luminescence was measured on GlomaxMulti+ using 0.5 s integration. Data was fit to one-site, specific binding using GraphPad Prism to determine Bmax and Kd.

In series [2] the test system is NLpoly11S. In words: Dark and quencher peptides: background signal from NLpoly11S (Example 153). Format: biochemical. The following applies: NLpoly11S in NanoGlo reagent, 5 min. On the procedure: A purified sample of NLpoly11S was diluted into NanoGlo reagent to give a final concentration of 2 uM. Pep86 is a high affinity luminogenic peptide and was used to induce maximum signal for NLpoly11S. Pep86 was prepared at 1 nM in PBS (pH 7.2) for a working solution. Dark peptide and quencher peptides (FIG. 180) were dissolved to 1 mM (or lower) in either PBS pH 7.2 or 150 mM NH4HCO3 and added in equal volume to the NanoGlo/NLpoly11S and then samples were read on a Tecan Infinite F500 reader using a 5 min time point.

The target in a further series is BRD4/Histone H3.3 (Homo sapiens, UniProt O60885). Put plainly: Inhibition of NLpoly11S-BRD4 / Histone H3.3-NLpep114 interaction in HEK293T cells (Example 128).
The subject of another series is NLpoly11S and NLpep114. Put plainly: Inhibition of NLpoly11S/NLpep114 binding by dark peptides (Examples 136, 137). Format: biochemical. As to conditions: for Signal of dark peptide with NLpoly11S on its own: no NLpep114 (Example 137). The protocol: In FIG. 183A, 50 nM NLpoly11S was mixed with […] NLpep114 and 37.5 μM dark peptide (DP) candidate (Q-162, A-162, K-162 or E-162). NanoGlo® assay reagent (Promega Corporation) was added and incubated for 5 minutes. Luminescence was detected. In FIG. 183B, 50 nM NLpoly11S in assay buffer (PBS pH7+0.01% Prionex+1 mM DTT+0.005% Tergitol) was mixed with 7.5 μM NLpep114 (also in assay buffer) and variable amounts of dark peptide (DP) candidates Q-162 or K-162 (also in assay buffer). NanoGlo® assay reagent (Promega Corporation) was added and incubated for 5 minutes. Luminescence was detected on a Tecan Infinite F500 reader; 100 ms integration time; 5 min time point used.
In FIG. 184A, 5 nM NLpoly11S was mixed with 500 nM NLpep114 and variable amounts of a dark peptide (DP) candidate Q-162 or A-162 (n=3). NanoGlo® assay reagent (Promega Corporation) was added and incubated for 5 minutes. Luminescence was detected.
In FIG. 184B, 5 nM NLpoly11S in assay buffer was mixed with variable amounts of dark peptide (DP) candidates Q-162 or A-162 in assay buffer (no NLpep114)(n=3). NanoGlo® assay reagent (Promega Corporation) was added and incubated for 5 minutes. Luminescence was detected.

Series [3] deals with circularly permuted Nluc (CP Nluc). In words: Inhibition of circularly permuted NanoLuc luciferase by dark peptides (Example 138). It is filed as biochemical. As to conditions: synthetic dark peptide dose-response, NanoGlo reagent, 5 min. On the procedure:
Recombinant CP Nluc was prepared as a soluble fraction of an E. coli 5×-concentrated lysate (T7-promoter; overnight expression). A 10,000-fold dilution of the CP Nluc in Assay Buffer (PBS pH 7/0.01% Prionex/1 mM DTT/0.005% Tergitol) was used. Synthetically-derived dark peptides were prepared across a range of concentrations, also in the Assay Buffer. Reactions were set up using 30 μL of CP NLuc and 60 μL of Dark peptide and assayed by adding 90 μL NanoGlo® assay reagent (Promega Corporation). Luminescence was measured (5 min) on a Tecan Infinite F500 reader (100 ms integration). Three replicates were used for Dark peptide samples. Two replicates were used for buffer controls (acetic acid from peptide stocks).

Another series has as its system NLpoly 5P. In words: Titration of NLpoly 5P with NLpep88-HT (Example 47). Format: biochemical. The following applies: serial dilutions of NLpep88-HT lysate.
The test system of a further series is HELA cells. In words: NLpep86-tagged firefly luciferase constructs in HELA cells detected with NLpoly11S reagent or Fluc activity (Example 141). Format: cell-based. The following applies: 48 hours after transfection. The protocol:
Validating the Use of Spontaneously Interacting NLpep86 as an Epitope Tag for Proteins Degraded by the Proteasome Experiments were conducted during development of embodiments of the present invention to validate the use of NLpep86 as a tag to monitor expression levels of proteins degraded by the proteasome. To do this, Nlpep86 was fused to firefly luciferase variants that were also fused to either one or more PEST, CL1 or ubiquitin sequences (pBC21, 22, 24-29). Each of these constructs is expected to undergo proteasome-mediated turnover to varying degrees following expression from a mutant CMV promoter (d1CMV).
The constructs pBC21, 22, 24-29 and control constructs expressing untagged firefly luciferase or untagged firefly luciferase fused to a PEST sequence (ATG082 and ATG083) were transiently transfected into HELA cells plated at 10,000 cells per well in a 96-well plate using 100 μL of DMEM+10% FBS. […] Protein expression levels were quantified in replicate wells for each construct by detecting firefly luciferase activity or by adding a detection reagent containing NLpoly11S (purified NLpoly11S added to NanoGlo®).
After a 48 hour incubation, 100 uL NanoGlo® […] reagent (90 ul of NLpoly11S in 50 ml of NanoGlo® assay reagent was added to each well and incubate for 3 minutes with shaking. Luminescence was then read on GloMax luminometer (0.5 sec/well).

Series [4] deals with wt Oplophorus 157-169 peptide. In words: Relative specific activity in HEK293T lysates (Example 143). It is filed as biochemical. The following applies: averages of Vmax and Bmax normalized to NanoLuc. On the procedure:
Each clone was inserted into pFN21A HaloTag® CMV Flexi® Vector (Promega G2821), and lysates were prepared as follows: 3 ml HEK293T cells that have been diluted to a concentration of 200,000 cells/ml (600,000 cells total) were plated into each well of a 6-well plate and grown overnight at 37° C. in a CO2 incubator. The following day transfection complexes of each DNA were prepared by combining […] of DNA, Opti-MEM® (Life Technologies 11058-021) to a final volume of 310 μl and 20 μl of FuGENE® HD (Promega E231a). The transfection complexes were incubated for 20 minutes and then 150 μl of each complex added in duplicate to cells. The cells were grown overnight 37° C. in a CO2 incubator. The following day, the cells were washed cells with DPBS (Life Technologies 14190-144), and 1 ml fresh DPBS added. Cells were frozen to lyse and then thawed for testing. Duplicate transfection reactions lysates were combined.
In order to compare the specific activities of Nluc (full length enzyme) to wt Oplophorusl-156 and NLpoly11S in combination with wt Oplophorus 157-169 peptide (binary proteins), substrate titrations were run for all of the samples, but for the binary samples substrate titrations were run at multiple peptide concentrations. Using this format, it was possible to calculate a Vmax value for Nluc and both Vmax and Bmax values for NLpoly11S and wt Oplophorus 1-156. Three separate experiments were run using this format and Vmax and Bmax values were normalized to the Vmax of NanoLuc. Relative specific activities (calculated as averages of Vmax and Bmax) are normalized to NanoLuc.

The mark [5] stands for this setting: high purity (>95%) peptides, 5 nM NLpoly11S, 500 nM NLpep114 (Example 137).

NVTGYRLFKKISN [NLPep79]: in the series with NLpoly11S [1], the “Binding affinity to NLpoly11S: synthetic vs N- or C-terminal HaloTag fusion” value is reported as “not found to change significantly” and the “Bmax with NLpoly11S when NLPep at the C-terminus of HaloTag” value is given as “reduced”.

As to “DAB-GWALFKK ({Dabcyl′}-GWALFKK) [Dabcyl-GWALFKK]”, the “Background luminescence generated by NLpoly11S in the absence of other luminogenic peptide” value in the series with NLpoly11S [2] is “reduce the background luminescence generated by NLpoly11S”.

As to NVSGWRLFKKISN [NLPep78], in the series with NLpoly11S [1], the “Binding affinity to NLpoly11S: synthetic vs N- or C-terminal HaloTag fusion” value is reported as “not found to change significantly” and the “Bmax with NLpoly11S when NLPep at the C-terminus of HaloTag” value was “reduced”.

On to VTGYALFEEIL, for which the “Luminescence relative to background (NLpoly11S alone; no peptide control)” value with NLpoly11S [2] was “induce luminescence over background”.

Turning to `COc1cc2c(cc1-c1c(C)noc1C)ncc1[nH]c(=O)n([C@H](C)c3ccccn3)c12` [IBET-151], the “Time within which the decline in luminescence occurs” value on BRD4/Histone H3.3 (0-500 nM IBET-151, time course) was at most 3 h. Further, the “Effect on luminescence of NLpoly11S-BRD4 / Histone H3.3-NLpep114” value on BRD4/Histone H3.3 (0 to 10 μM, 4 h at 37° C.) was “dose-dependent decline in luminescence”.

VSGWQLFKKIS [Gln-162]: the “Signal of dark peptide with NLpoly11S on its own” value in the series on NLpoly11S and NLpep114 (5 nM NLpoly11S) was “produces a signal on its own in a dose-dependent manner”. For the same molecule, the “Inhibition of binding between NLpoly11S and NLpep114” value is recorded as “dose-dependent” in the series with NLpoly11S and NLpep114 (array peptides, 50 nM NLpoly11S, 7.5 μM NLpep114 (Example 136)); “dose-dependent” with NLpoly11S and NLpep114 (setting [5]). The “Inhibition of generation of luminescence by CP Nluc” value in series [3] is over 1 logs.

In the case of “NLpep88: NLpep78 with Gly as 6th residue instead of Arg, HT fusion lysate (MNVSGWGLFKKISN; also: HT fusion (lysate))”, the “Luminescence with NLpoly 5P” value in the series with NLpoly 5P is reported as “no increase in luminescence above 5P alone at lower concentrations”.

VTGWALFEEIL: in the series with NLpoly11S [2], the “Luminescence relative to background (NLpoly11S alone; no peptide control)” value was “induce luminescence over background”.

Regarding GWALFKK, in the series on NLpoly11S [2], the “Background luminescence generated by NLpoly11S in the absence of other luminogenic peptide” value was “reduce the background luminescence generated by NLpoly11S”.

As to VSGWALFKKIS [Ala-162], the “Signal of dark peptide with NLpoly11S on its own” value with NLpoly11S and NLpep114 (5 nM NLpoly11S) is given as “subtle at best”. Also, the “Inhibition of binding between NLpoly11S and NLpep114” value in the series with NLpoly11S and NLpep114 (setting [5]) is recorded as “dose-dependent”; with NLpoly11S and NLpep114 (high purity (>95%) peptides, 5 nM NLpoly11S, 500 nM NLpep114 (Example 137), listed as Ala peptide), “most potent as an inhibitor”. Besides, the “Inhibition of generation of luminescence by CP Nluc” value in series [3] is given as over 2 logs.

As to BC26: MVSGWRLFKKIS-GGSGGGGSGG-Fluc-CP, in the series on HELA cells, the “Relative brightness of construct (Fluc and NLpep86 signals)” value is reported as “least bright”.

With BC21: MVSGWRLFKKIS-GGSGGGGSGG-Fluc, in the series on HELA cells, the “Relative brightness of construct (Fluc and NLpep86 signals)” value was “brightest”.

B1: NanoLuc: full-length NanoLuc luciferase (Promega), SEQ ID NO: 2157 (protein)
chain: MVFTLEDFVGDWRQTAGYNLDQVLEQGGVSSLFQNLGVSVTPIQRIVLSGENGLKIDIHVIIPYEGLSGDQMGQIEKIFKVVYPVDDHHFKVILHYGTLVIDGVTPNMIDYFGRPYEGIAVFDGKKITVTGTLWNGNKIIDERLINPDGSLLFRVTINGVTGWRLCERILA
As for B1, the “Relative specific activity (*with wt 157-169 peptide)” value in series [4] is 1.00.

B2: wt 1-156: Wild-Type Oplophorus Luciferase Residues 1-156 (protein)
chain: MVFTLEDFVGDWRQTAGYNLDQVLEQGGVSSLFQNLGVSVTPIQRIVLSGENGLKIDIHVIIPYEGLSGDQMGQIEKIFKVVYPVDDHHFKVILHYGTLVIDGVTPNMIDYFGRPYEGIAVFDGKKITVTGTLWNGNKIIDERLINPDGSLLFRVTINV
With B2, the “Relative specific activity (*with wt 157-169 peptide)” value in series [4] is listed as 0.07*.
